# Data published in ChEMBL document CHEMBL1130598, “Pyrroles and other heterocycles as inhibitors of p38 kinase” (Bioorg Med Chem Lett, 1998).
# Tests used:
# [1] = biological target: Mitogen-activated protein kinase 14 (Rattus norvegicus, UniProt P70618); assay: Inhibitory potency evaluated against rat p38 kinase
# Rattus norvegicus [2] = species on record: Rattus norvegicus; assay: Inhibition of secondary paw swelling in rat adjuvant arthritis model; format: functional; details: for ED50: Rattus norvegicus, read-out: ID50 (the source's name)
# Rattus norvegicus [3] = assay: Inhibition of secondary paw swelling in rat adjuvant arthritis model at 80 mg/kg b.i.d.; format: functional; details: intraduodenal
# [4] = biological target: T1, Mitogen-activated protein kinase 8 (Homo sapiens, UniProt P45983); assay: Inhibition of c-Jun N-terminal kinase 1-alpha 1 at 5 uM
# T1 sequence (P45983 whole entry): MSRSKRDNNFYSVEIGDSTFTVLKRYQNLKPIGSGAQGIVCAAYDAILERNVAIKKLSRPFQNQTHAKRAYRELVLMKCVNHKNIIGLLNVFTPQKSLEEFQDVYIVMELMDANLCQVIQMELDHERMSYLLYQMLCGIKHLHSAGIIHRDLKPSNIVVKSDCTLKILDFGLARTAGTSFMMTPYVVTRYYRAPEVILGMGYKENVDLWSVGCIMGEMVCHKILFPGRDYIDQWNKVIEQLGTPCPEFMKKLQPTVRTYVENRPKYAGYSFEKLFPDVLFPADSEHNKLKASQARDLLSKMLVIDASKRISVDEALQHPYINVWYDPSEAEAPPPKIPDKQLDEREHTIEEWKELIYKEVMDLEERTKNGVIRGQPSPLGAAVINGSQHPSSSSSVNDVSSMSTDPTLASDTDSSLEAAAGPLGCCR
# [5] = Pharmacokinetic parameter area under curve was determined at 10 mg/kg po dose in rats; format: ADME, organism-based; design: dose 10 mg/kg, route oral; details: rat, in vivo
# [6] = Pharmacokinetic parameter area under curve was determined at 2 mg/kg i.v. dose in rats; format: ADME, organism-based; design: dose 2 mg/kg, route intravenous; details: rat, in vivo, iv
# [7] = Pharmacokinetic parameter area under curve was determined at 3 mg/kg po dose in rats; format: ADME, organism-based; design: dose 3 mg/kg, route oral; details: rat, in vivo
# [8] = Pharmacokinetic parameter area under curve was determined at 5 mg/kg i.v. dose in rats; format: ADME, organism-based; design: dose 5 mg/kg, route intravenous; details: rat, in vivo, iv
# [9] = biological target: T2, Mitogen-activated protein kinase 12 (Homo sapiens) (UniProt P53778); assay: Inhibition of Mitogen-activated protein kinase p38 gamma at 25 uM
# T2 sequence (whole entry): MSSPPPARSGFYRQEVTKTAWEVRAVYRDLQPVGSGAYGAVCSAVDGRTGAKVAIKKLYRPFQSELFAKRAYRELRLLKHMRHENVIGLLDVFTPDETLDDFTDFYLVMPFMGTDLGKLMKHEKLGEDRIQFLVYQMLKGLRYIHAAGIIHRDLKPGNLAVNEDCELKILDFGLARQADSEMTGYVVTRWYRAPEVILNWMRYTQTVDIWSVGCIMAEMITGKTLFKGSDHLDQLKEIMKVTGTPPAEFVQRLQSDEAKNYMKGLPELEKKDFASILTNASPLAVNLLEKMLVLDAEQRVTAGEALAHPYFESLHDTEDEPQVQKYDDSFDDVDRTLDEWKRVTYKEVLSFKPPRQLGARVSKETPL
# [10] = biological target: Mitogen-activated protein kinase 14 (Homo sapiens, UniProt Q16539); assay: Inhibition of Mitogen-activated protein kinase p38 alpha
# Chain of Mitogen-activated protein kinase 14 (Homo sapiens, UniProt Q16539) (Q16539 whole entry): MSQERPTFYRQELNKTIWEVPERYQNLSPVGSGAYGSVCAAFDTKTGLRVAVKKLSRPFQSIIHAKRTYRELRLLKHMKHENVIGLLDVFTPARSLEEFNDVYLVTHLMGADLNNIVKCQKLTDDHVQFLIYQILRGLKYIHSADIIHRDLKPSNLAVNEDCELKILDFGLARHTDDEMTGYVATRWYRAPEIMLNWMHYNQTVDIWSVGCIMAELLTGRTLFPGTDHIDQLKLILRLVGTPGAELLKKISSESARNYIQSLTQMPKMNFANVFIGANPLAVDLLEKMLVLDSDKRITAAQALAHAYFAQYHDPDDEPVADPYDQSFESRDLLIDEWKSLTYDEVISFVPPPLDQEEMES
# [11] = biological target: Mitogen-activated protein kinase 11 (Homo sapiens, UniProt Q15759); assay: Inhibition of Mitogen-activated protein kinase p38 beta
# Chain of Mitogen-activated protein kinase 11 (Q15759 whole entry): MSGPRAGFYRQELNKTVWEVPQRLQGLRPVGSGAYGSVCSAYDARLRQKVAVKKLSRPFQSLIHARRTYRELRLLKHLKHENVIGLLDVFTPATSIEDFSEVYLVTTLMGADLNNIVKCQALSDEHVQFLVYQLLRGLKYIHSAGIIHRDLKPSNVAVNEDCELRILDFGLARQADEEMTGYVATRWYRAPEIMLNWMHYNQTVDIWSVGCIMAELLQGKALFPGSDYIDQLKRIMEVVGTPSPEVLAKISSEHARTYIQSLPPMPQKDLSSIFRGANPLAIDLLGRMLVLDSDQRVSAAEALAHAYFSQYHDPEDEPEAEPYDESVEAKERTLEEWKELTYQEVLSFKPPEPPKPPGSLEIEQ
# [12] = biological target: T3, RAF proto-oncogene serine/threonine-protein kinase (Homo sapiens, UniProt P04049); assay: Inhibition of RAF kinase
# T3 sequence (P04049 whole entry): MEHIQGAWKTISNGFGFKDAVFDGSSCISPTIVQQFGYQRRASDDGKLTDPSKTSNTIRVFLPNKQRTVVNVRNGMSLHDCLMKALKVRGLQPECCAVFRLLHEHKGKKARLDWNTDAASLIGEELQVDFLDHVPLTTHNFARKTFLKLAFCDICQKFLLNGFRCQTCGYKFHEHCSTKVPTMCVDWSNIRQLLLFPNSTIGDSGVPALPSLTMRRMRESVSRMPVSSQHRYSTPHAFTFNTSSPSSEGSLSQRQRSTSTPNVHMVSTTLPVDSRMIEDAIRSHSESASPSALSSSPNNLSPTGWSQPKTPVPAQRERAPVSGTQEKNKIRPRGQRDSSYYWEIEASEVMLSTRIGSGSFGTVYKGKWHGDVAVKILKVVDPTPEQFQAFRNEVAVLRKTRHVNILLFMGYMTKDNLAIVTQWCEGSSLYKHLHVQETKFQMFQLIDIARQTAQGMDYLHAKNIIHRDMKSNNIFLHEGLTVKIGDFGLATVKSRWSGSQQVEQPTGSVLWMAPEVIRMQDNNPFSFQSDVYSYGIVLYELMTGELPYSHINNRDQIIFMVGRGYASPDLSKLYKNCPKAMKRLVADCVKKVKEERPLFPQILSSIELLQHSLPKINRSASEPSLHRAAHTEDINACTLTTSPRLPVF
# [13] = biological target: T3, RAF proto-oncogene serine/threonine-protein kinase; assay: Inhibition of RAF kinase at 1 uM
# [14] = biological target: T4, Mitogen-activated protein kinase 9 (Homo sapiens, UniProt P45984); assay: Inhibition of c-Jun N-terminal kinase 2-alpha 2
# T4 sequence (P45984 whole entry): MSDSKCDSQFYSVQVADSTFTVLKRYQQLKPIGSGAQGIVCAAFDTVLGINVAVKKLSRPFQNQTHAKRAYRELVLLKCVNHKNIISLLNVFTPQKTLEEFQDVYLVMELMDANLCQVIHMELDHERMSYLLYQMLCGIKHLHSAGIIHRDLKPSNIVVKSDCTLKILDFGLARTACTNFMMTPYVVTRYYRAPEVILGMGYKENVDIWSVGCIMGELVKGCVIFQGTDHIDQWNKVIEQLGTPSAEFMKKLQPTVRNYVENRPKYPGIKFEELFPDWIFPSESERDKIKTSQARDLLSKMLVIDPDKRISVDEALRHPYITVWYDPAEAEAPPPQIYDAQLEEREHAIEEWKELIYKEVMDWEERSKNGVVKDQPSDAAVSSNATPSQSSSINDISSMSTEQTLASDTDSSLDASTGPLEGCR
# [15] = biological target: T4, Mitogen-activated protein kinase 9; assay: Inhibition of c-Jun N-terminal kinase 2-beta 1
# [16] = biological target: T1, Mitogen-activated protein kinase 8; assay: Inhibition of c-Jun N-terminal kinase 1-alpha 1 at 20 uM
# [17] = biological target: MAP kinase p38 (Homo sapiens) (UniProt O15264+Q15759+Q16539+P53778); assay: Inhibition of p38 MAP kinase; format: protein assay
# Rattus norvegicus [18] = species on record: Rattus norvegicus; assay: Inhibition of secondary paw swelling in rat adjuvant arthritis model […]; format: functional
# [19] = Pharmacokinetic parameter Vdss was determined at 5 mg/kg i.v. dose in rats; format: ADME, organism-based; design: dose 5 mg/kg, route intravenous; details: rat, in vivo, iv, read-out: Vdss
# [20] = T max was determined at 10 mg/kg po dose in rats; format: ADME, organism-based; design: dose 10 mg/kg, route oral; details: rat, in vivo
# [21] = T max was determined at 3 mg/kg po dose in rats; format: ADME, organism-based; design: dose 3 mg/kg, route oral; details: rat, in vivo
# Rattus norvegicus [22] = assay: Pharmacokinetic parameter plasma clearance was determined at 2 mg/kg i.v. dose in rats; format: ADME, organism-based; design: dose 2 mg/kg, route intravenous; details: in vivo, iv
# Rattus norvegicus [23] = assay: Pharmacokinetic parameter plasma clearance was determined at 5 mg/kg i.v. dose in rats; format: ADME, organism-based; design: dose 5 mg/kg, route intravenous; details: in vivo, iv
# [24] = Bioavailability was determined at 3 mg/kg po dose in rats; format: ADME, organism-based; details: rat, in vivo
# [25] = C max was determined at 3 mg/kg po dose in rats; format: ADME, organism-based; design: dose 3 mg/kg, route oral; details: rat, in vivo
# [26] = Pharmacokinetic parameter half-life was determined at 10 mg/kg po dose in rats; format: ADME, organism-based; design: dose 10 mg/kg, route oral; details: rat, in vivo
# [27] = Pharmacokinetic parameter half-life was determined at 2 mg/kg i.v. dose in rats; format: ADME, organism-based; design: dose 2 mg/kg, route intravenous; details: rat, in vivo, iv
# [28] = Pharmacokinetic parameter half-life was determined at 3 mg/kg po dose in rats; format: ADME, organism-based; design: dose 3 mg/kg, route oral; details: rat, in vivo
# [29] = Pharmacokinetic parameter half-life was determined at 5 mg/kg i.v. dose in rats; format: ADME, organism-based; design: dose 5 mg/kg, route intravenous; details: rat, in vivo, iv
# Rattus norvegicus [30] = assay: Inhibition of secondary paw swelling in rat adjuvant arthritis model at 20 mg/kg/ b.i.d.; format: functional; details: intraduodenal
# [31] = biological target: T1, Mitogen-activated protein kinase 8; assay: Inhibition of c-Jun N-terminal kinase 1-alpha 1
# [32] = Pharmacokinetic parameter Vdss was determined at 2 mg/kg i.v. dose in rats; format: ADME, organism-based; design: dose 2 mg/kg, route intravenous; details: rat, in vivo, iv, read-out: Vdss
# [33] = C max was determined at 10 mg/kg po dose in rats; format: ADME, organism-based; design: dose 10 mg/kg, route oral; details: rat, in vivo
# [34] = biological target: T2, Mitogen-activated protein kinase 12 (Homo sapiens); details: 50 uM
# Description: Inhibition of Mitogen-activated protein kinase p38 gamma at 50 uM
# Chain of Mitogen-activated protein kinase 14 (Rattus norvegicus, UniProt P70618) (P70618 whole entry): as the sequence (Q16539 whole entry) above, with I17V, L48H, T263A, D321E, L332F counted along it
compound,measurement,setting,value
Fc1ccc(-c2[nH]c(-c3ccccc3)cc2-c2ccncc2)cc1F,IC50,[1],4.4 nM
COc1ccc(OC)c(-c2cc(-c3ccncc3)c(-c3ccc(F)cc3)[nH]2)c1,IC50,[1],1700 nM
C[S+]([O-])c1ccc(-n2nc(-c3ccncc3)c(-c3ccc(F)cc3)c2O)cc1 (stereo not drawn),IC50,[1],83 nM
CSc1ccc(-c2cc(-c3ccncc3)c(-c3ccc(F)cc3)[nH]2)cc1,IC50,[1],44 nM
CCOC(=O)c1ccc(-c2cc(-c3ccncc3)c(-c3ccccc3)[nH]2)cc1,IC50,[1],130 nM
O=[N+]([O-])c1ccc(-c2cc(-c3ccncc3)c(-c3ccccc3)[nH]2)cc1,IC50,[1],6.1 nM
CCOC(=O)c1ccc(-c2[nH]c(-c3ccccc3)cc2-c2ccncc2)cc1,IC50,[1],> 10000 nM
Fc1ccccc1-c1cc(-c2ccncc2)c(-c2ccccc2)[nH]1,IC50,[1],34 nM
c1ccc(-c2cc(-c3ccncc3)c(-c3ccncc3)[nH]2)cc1,IC50,[1],1220 nM
Fc1cccc(-c2cc(-c3ccncc3)c(-c3ccccc3)[nH]2)c1,IC50,[1],42 nM
C[S+]([O-])c1ccc(-c2nc(-c3ccc(F)cc3)c(-c3ccncc3)[nH]2)cc1 (stereo not drawn) [SB-203580],ED50,Rattus norvegicus [2],80 mg/kg/day
same,inhibition in vivo at 80 mg/kg,Rattus norvegicus [3],74%
same,inhibition,[4],50%
Fc1ccc(-c2cc(-c3ccc(Cl)cc3)[nH]c2-c2ccncc2)cc1,IC50,[1],1400 nM
Fc1ccc(-c2[nH]c(-c3ccccc3)cc2-c2ccncc2)cc1,IC50,[1],12 nM
CS(=O)(=O)c1ccc(-c2cc(-c3ccncc3)c(-c3ccc(F)cc3)[nH]2)cc1,AUC,[5],95.7 µM·h
same,AUC,[6],6.18 µM·h
same,AUC,[7],5.8 µM·h
same,AUC,[8],32.6 µM·h
same,inhibition,[9],37%
same,IC50,[10],9 nM
same,IC50,[11],10 nM
same,IC50,[1],9.8 nM
same,IC50,[12],500 nM
same,inhibition,[13],50%
same,ED50,Rattus norvegicus [2],7.4 mg/kg/day
same,IC50,[14],6850 nM
same,IC50,[15],1080 nM
same,inhibition,[16],50%
COc1ccc(-c2cc(-c3ccncc3)c(-c3ccccc3)[nH]2)cc1,IC50,[1],280 nM
Oc1ccc(-c2[nH]c(-c3ccccc3)cc2-c2ccncc2)cc1,IC50,[1],2400 nM
Fc1ccc(-c2[nH]c(-c3ccccc3)cc2-c2ccccc2)cc1,inhibition,[17],79%
c1ccc(-c2cc(-c3ccncc3)c(-c3cccnc3)[nH]2)cc1,IC50,[1],240 nM
c1ccc(-c2cc(-c3ccncc3)c(-c3cccs3)[nH]2)cc1,IC50,[1],120 nM
COc1ccc(-c2cc(-c3ccncc3)c(-c3ccc(F)cc3)[nH]2)cc1,IC50,[1],60 nM
Cc1cnccc1-c1cc(-c2ccc([S+](C)[O-])cc2)[nH]c1-c1ccc(F)cc1 (stereo not drawn),IC50,[1],260 nM
c1ccc(-c2cc(-c3ccncc3)c(-c3ccoc3)[nH]2)cc1,IC50,[1],660 nM
Oc1c(-c2ccncc2)c(-c2ccc(F)cc2)nn1-c1ccc(Cl)cc1,IC50,[1],500 nM
same,Inhibition,Rattus norvegicus [18],43%
COc1ccc(OC)c(-c2cc(-c3ccncc3)c(-c3ccccc3)[nH]2)c1,IC50,[1],5000 nM
COc1ccc2c(c1)c(CC(=O)O)c(C)n2C(=O)c1ccc(Cl)cc1 [INDOMETHACIN],ID50,Rattus norvegicus [2],1 mg kg-1 b.i.d.
Nc1ccc(-c2cc(-c3ccncc3)c(-c3ccccc3)[nH]2)cc1,IC50,[1],28 nM
Clc1ccc(-c2[nH]c(-c3ccccc3)cc2-c2ccncc2)cc1Cl,IC50,[1],30 nM
Clc1cccc(-c2[nH]c(-c3ccccc3)cc2-c2ccncc2)c1,IC50,[1],29 nM
c1ccc(-c2cc(-c3ccncc3)c(-c3ccccn3)[nH]2)cc1,IC50,[1],2300 nM
Cc1cc(-c2cc(-c3ccc([S+](C)[O-])cc3)[nH]c2-c2ccc(F)cc2)ccn1 (stereo not drawn),IC50,[1],6 nM
c1ccc(-c2cc(-c3ccncc3)c(-c3ccccc3)[nH]2)cc1,IC50,[1],17 nM
N#Cc1ccc(-c2[nH]c(-c3ccccc3)cc2-c2ccncc2)cc1,IC50,[1],450 nM
FC(F)(F)c1ccc(-c2[nH]c(-c3ccccc3)cc2-c2ccncc2)cc1,IC50,[1],910 nM
Fc1ccc(-c2cc(-c3ccncc3)c(-c3ccccc3)[nH]2)cc1,IC50,[1],17 nM
Fc1ccc(-c2[nH]c(-c3ccc(Br)cc3)cc2-c2ccncc2)cc1,IC50,[1],100 nM
Fc1ccc(-c2[nH]c(-c3ccc(Cl)cc3)cc2-c2ccncc2)cc1,IC50,[1],200 nM
N#Cc1cccc(-c2[nH]c(-c3ccccc3)cc2-c2ccncc2)c1,IC50,[1],53 nM
Clc1ccccc1-c1[nH]c(-c2ccccc2)cc1-c1ccncc1,IC50,[1],500 nM
Fc1ccc(-c2[nH]c(-c3ccccc3)cc2-c2ccncc2)c(F)c1,IC50,[1],29 nM
Clc1ccc(-c2[nH]c(-c3ccccc3)cc2-c2ccncc2)cc1,IC50,[1],18 nM
CC(C)(C)Oc1ccc(-c2[nH]c(-c3ccccc3)cc2-c2ccncc2)cc1,IC50,[1],> 1000 nM
Fc1ccc(-c2[nH]c(-c3ccccc3)cc2-c2ccncn2)cc1,IC50,[1],710 nM
O=C(CCN1CCCCC1)Nc1ccc(-c2cc(-c3ccncc3)c(-c3ccccc3)[nH]2)cc1,IC50,[1],390 nM
Fc1ccc(-c2[nH]c(-c3ccc(Cl)cc3)cc2-c2ccccn2)cc1,IC50,[1],> 10000 nM
C[S+]([O-])c1ccc(-c2cc(-c3ccnc4ccccc34)c(-c3ccc(F)cc3)[nH]2)cc1 (stereo not drawn),IC50,[1],114 nM
Fc1ccc(-c2cc(-c3ccc(Cl)cc3)oc2-c2ccncc2)cc1,IC50,[1],530 nM
Fc1ccc(-c2oc(-c3ccc(Cl)cc3)cc2-c2ccncc2)cc1,IC50,[1],630 nM
Fc1ccc(-c2cc(-c3ccncc3)c(-c3ccc(F)cc3)[nH]2)cc1,IC50,[1],60 nM
O=C(NCCN1CCCCC1)c1ccc(-c2cc(-c3ccncc3)c(-c3ccccc3)[nH]2)cc1,IC50,[1],97 nM
Clc1ccc(-c2cc(-c3ccncc3)c(-c3ccccc3)[nH]2)cc1,IC50,[1],510 nM
O=c1c(-c2ccc(F)cc2)c(-c2ccncc2)[nH]n1-c1ccc(Cl)cc1,IC50,[1],35 nM
Fc1ccc(-c2nc(-c3ccc(Cl)cc3)[nH]c2-c2ccncc2)cc1,IC50,[1],80 nM
C[S+]([O-])c1ccc(-c2cc(-c3ccncc3)c(-c3ccc(F)cc3)[nH]2)cc1 (stereo not drawn),Vd,[19],1.81 L/kg
same,Tmax,[20],1.05 h
same,Tmax,[21],1 h
same,Clp,Rattus norvegicus [22],42.6 mL/min/kg
same,Clp,Rattus norvegicus [23],22.5 mL/min/kg
same,bioavailability,[24],25.6%
same,Cmax,[25],0.31 µM
same,half-life,[26],2.59 h
same,half-life,[27],0.652 h
same,half-life,[28],2.04 h
same,half-life,[29],1.06 h
same,AUC,[5],16.7 µM·h
same,AUC,[6],2.1 µM·h
same,AUC,[7],0.81 µM·h
same,AUC,[8],10 µM·h
same,IC50,[10],5 nM
same,IC50,[11],8.1 nM
same,IC50,[1],5.1 nM
same,IC50,[12],470 nM
same,ID50,Rattus norvegicus [2],7.4 mg kg-1 b.i.d.
same,inhibition in vivo at 20 mg/kg,Rattus norvegicus [30],90%
same,IC50,[14],7610 nM
same,IC50,[15],1500 nM
same,IC50,[31],16000 nM
same,Vd,[32],2.23 L/kg
same,Cmax,[33],5.71 µM
same,inhibition,[34],42%
CSc1ccc(-c2[nH]c(-c3ccccc3)cc2-c2ccncc2)cc1,IC50,[1],690 nM
O=[N+]([O-])c1cccc(-c2cc(-c3ccncc3)c(-c3ccccc3)[nH]2)c1,IC50,[1],53 nM
O=C(O)c1ccc(-c2cc(-c3ccncc3)c(-c3ccccc3)[nH]2)cc1,IC50,[1],14 nM
